Assay results as given in patent publication US9546173B2 (Novartis AG, priority 2012, dated 2017).
Read-outs that look alike come from different tables or passages of the source.

Columns and labels:
Format in all cases: biochemical
activated ERK2 = activated ERK2 (Homo sapiens (Human), UniProt P28482); experiment: Activated ERK2 kinase assay (AlphaScreen, ERKtide peptide phosphorylation); conditions: 35 μM ATP, 30 min preincubation, read-out: ERK2 IC50
RSK1 = RSK1 (Homo sapiens (Human), UniProt Q15418); experiment: In vitro inhibition of RSK1; conditions: in vitro activity on RSK1
Sequence of RSK1 (Q15418 whole entry, species assumed): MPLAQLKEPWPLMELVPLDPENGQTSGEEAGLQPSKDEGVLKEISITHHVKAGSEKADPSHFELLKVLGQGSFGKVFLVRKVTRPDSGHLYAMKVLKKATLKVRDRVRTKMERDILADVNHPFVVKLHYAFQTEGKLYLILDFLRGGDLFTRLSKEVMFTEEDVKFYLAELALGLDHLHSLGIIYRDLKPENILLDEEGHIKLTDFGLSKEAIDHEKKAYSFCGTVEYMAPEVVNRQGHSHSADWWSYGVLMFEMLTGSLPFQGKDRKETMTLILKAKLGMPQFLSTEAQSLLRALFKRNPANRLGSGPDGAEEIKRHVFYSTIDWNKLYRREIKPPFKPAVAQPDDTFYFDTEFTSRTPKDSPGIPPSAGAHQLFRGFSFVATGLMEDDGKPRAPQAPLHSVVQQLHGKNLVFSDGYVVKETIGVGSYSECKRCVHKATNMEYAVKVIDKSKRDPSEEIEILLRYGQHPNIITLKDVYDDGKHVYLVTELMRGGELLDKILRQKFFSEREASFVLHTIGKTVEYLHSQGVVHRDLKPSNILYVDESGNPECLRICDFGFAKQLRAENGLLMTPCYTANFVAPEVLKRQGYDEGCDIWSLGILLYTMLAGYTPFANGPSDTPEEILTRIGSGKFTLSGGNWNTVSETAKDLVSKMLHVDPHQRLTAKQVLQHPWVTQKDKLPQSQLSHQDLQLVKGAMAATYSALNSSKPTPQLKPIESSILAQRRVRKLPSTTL
Method: (§1) The following Table 3 lists compounds that were tested for inhibition of RSK; the IC50 values are in micromolar units, and refer to inhibition of RSK1 and RSK2, respectively. Where multiple measurements were made, each value is reported.

RSK2 = RSK2 (Homo sapiens (Human), UniProt P51812); experiment: In vitro inhibition of RSK2; conditions: in vitro activity on RSK2; where multiple measurements were made, each value is reported
Sequence of RSK2 (P51812 whole entry, species assumed): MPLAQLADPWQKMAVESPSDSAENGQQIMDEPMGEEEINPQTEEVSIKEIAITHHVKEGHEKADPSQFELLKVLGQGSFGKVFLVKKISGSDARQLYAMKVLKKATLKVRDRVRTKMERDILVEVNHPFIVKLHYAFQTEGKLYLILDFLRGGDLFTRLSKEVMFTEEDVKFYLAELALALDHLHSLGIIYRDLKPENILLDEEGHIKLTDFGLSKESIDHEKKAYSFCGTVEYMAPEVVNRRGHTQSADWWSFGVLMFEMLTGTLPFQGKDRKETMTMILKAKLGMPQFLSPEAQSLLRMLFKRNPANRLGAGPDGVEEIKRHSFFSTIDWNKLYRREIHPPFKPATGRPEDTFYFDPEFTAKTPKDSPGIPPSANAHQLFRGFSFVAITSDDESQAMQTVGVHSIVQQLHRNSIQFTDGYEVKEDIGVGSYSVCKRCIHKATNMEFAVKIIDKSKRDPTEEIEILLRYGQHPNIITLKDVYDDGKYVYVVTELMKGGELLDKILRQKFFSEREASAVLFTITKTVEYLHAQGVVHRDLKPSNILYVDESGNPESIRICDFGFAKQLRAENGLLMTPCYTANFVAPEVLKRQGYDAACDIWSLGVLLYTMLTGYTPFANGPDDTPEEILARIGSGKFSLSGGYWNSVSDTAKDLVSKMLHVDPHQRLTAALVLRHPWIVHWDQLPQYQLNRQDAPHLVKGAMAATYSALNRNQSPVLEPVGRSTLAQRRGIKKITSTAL
Method: as §1

[1] = […] ERK2, 200 nM ERKtide peptide

Sequence of activated ERK2 (P28482 whole entry): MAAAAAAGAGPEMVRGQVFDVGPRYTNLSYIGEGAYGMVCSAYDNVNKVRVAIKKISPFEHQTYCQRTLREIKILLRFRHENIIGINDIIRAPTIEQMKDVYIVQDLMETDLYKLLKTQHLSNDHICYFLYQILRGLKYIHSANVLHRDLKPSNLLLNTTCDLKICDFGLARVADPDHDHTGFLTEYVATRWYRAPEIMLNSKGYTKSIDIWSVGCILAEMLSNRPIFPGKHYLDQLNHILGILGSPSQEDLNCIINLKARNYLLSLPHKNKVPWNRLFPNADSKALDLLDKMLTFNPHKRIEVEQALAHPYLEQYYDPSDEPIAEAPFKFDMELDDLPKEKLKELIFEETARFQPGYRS

Row | IC50 (activated ERK2; [1]) [µM] | IC50 (RSK1) [µM] | IC50 (RSK2) [µM] | IC50 (activated ERK2; 0.25 nM ERK2, 200 nM ERKtide peptide) [µM] | SMILES
1 | 125 | – | 1.37 | – | CN1CC(NC(=O)N2Cc3nc(Nc4ccccc4)ncc3C2(C)C)C1 [compound 153, 5,5-dimethyl-N-(1-methylazetidin-3-yl)-2-(phenylamino)-5H-pyrrolo[3,4-d]pyrimidine-6(7H)-carboxamide]
2 | 25 | – | 3.85 | – | CN(C)CCNC(=O)N1Cc2nc(Nc3ccccc3)ncc2C1(C)C [compound 157, N-(2-(dimethylamino)ethyl)-5,5-dimethyl-2-(phenylamino)-5H-pyrrolo[3,4-d]pyrimidine-6(7H)-carboxamide]
3 | 41.1 | – | 3.88 | – | CN1CCC(NC(=O)N2Cc3nc(Nc4ccccc4)ncc3C2(C)C)C1 (centres unmarked) [compound 158, 5,5-dimethyl-N-(1-methylpyrrolidin-3-yl)-2-(phenylamino)-5H-pyrrolo[3,4-d]pyrimidine-6(7H)-carboxamide]
4 | 36.6 | – | 5.65 | – | Cn1cncc1CNC(=O)N1Cc2nc(Nc3ccccc3)ncc2C1(C)C [compound 160, 5,5-dimethyl-N-((1-methyl-1H-imidazol-5-yl)methyl)-2-(phenylamino)-5H-pyrrolo[3,4-d]pyrimidine-6(7H)-carboxamide]
5 | 16.2 | – | 8.21 | – | CC1(C)c2cnc(Nc3ccccc3)nc2CN1C(=O)NCc1cocn1 [compound 162, 5,5-dimethyl-N-(oxazol-4-ylmethyl)-2-(phenylamino)-5H-pyrrolo[3,4-d]pyrimidine-6(7H)-carboxamide]
6 | 18.4 | – | 14 | – | CC1(C)c2cnc(Nc3ccccc3)nc2CN1C(=O)NCCO [compound 164, N-(2-hydroxyethyl)-5,5-dimethyl-2-(phenylamino)-5H-pyrrolo[3,4-d]pyrimidine-6(7H)-carboxamide]
7 | 44.8 | – | 16.3 | – | CN(C)Cc1ccccc1CNC(=O)N1Cc2nc(Nc3ccccc3)ncc2C1(C)C [compound 166, N-(2-((dimethylamino)methyl)benzyl)-5,5-dimethyl-2-(phenylamino)-5H-pyrrolo[3,4-d]pyrimidine-6(7H)-carboxamide]

Continued, compound first:

Row | SMILES | IC50 (activated ERK2; [1]) [µM] | IC50 (RSK1) [µM] | IC50 (RSK2) [µM] | IC50 (activated ERK2; 0.25 nM ERK2, 200 nM ERKtide peptide) [µM]
8 | CN1CCN(C(=O)N2Cc3nc(Nc4ccccc4)ncc3C2(C)C)CC1 [compound 151, (5,5-dimethyl-2-(phenylamino)-5H-pyrrolo[3,4-d]pyrimidin-6(7H)-yl)(4-methylpiperazin-1-yl)methanone] | 5.57 | 1.61 | 1.17 | –
9 | CN1CCN(C(=O)N2Cc3nc(Nc4ccccc4)ncc3C2(C)C)C(Cc2ccccc2)C1 (centres unmarked) [compound 154, (2-benzyl-4-methylpiperazin-1-yl)(5,5-dimethyl-2-(phenylamino)-5H-pyrrolo[3,4-d]pyrimidin-6(7H)-yl)methanone] | 3.03 | – | 1.64 | –
10 | CC1(C)c2cnc(Nc3ccccc3)nc2CN1C(=O)NC1CCN(Cc2ccccc2)C1 (centres unmarked) [compound 155, N-(1-benzylpyrrolidin-3-yl)-5,5-dimethyl-2-(phenylamino)-5H-pyrrolo[3,4-d]pyrimidine-6(7H)-carboxamide] | 0.969 | – | 1.91 | –
11 | CC1(C)c2cnc(Nc3ccccc3)nc2CN1C(=O)NCC1CCN(Cc2ccccc2)C1 (centres unmarked) [compound 159, N-((1-benzylpyrrolidin-3-yl)methyl)-5,5-dimethyl-2-(phenylamino)-5H-pyrrolo[3,4-d]pyrimidine-6(7H)-carboxamide] | 19.6 | – | 5.65 | –
12 | CN(C)[C@@H]1CCCC[C@H]1NC(=O)N1Cc2nc(Nc3ccccc3)ncc2C1(C)C [compound 161, N-((1R,2R)-2-(dimethylamino)cyclohexyl)-5,5-dimethyl-2-(phenylamino)-5H-pyrrolo[3,4-d]pyrimidine-6(7H)-carboxamide] | 125 | – | 8.2 | –
13 | CN1CCC(NC(=O)N2Cc3nc(Nc4ccccc4)ncc3C2(C)C)CC1 [compound 163, 5,5-dimethyl-N-(1-methylpiperidin-4-yl)-2-(phenylamino)-5H-pyrrolo[3,4-d]pyrimidine-6(7H)-carboxamide] | 83.5 | – | 14 | –
14 | CC1(C)c2cnc(Nc3ccccc3)nc2CN1C(=O)NC1CCOCC1 [compound 165, 5,5-dimethyl-2-(phenylamino)-N-(tetrahydro-2H-pyran-4-yl)-5H-pyrrolo[3,4-d]pyrimidine-6(7H)-carboxamide] | – | – | 15.2 | 18.9
